Experimental data published in the supplement of paper PMC10307832.

Experiments:
Assay in all cases: relative viability (nuclei count vs DMSO), 5 days (fraction); higher = more cells survive
[1] = compound: C(C(=O)C(=O)O)Br [Bromopyruvate] + Cc1nc(NC(=O)N2CCC[C@H]2C(N)=O)sc1-c1ccnc(C(C)(C)C(F)(F)F)c1 [Alpelisib] (partner 2 µM)
Method in brief: (§1)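 Relative viability was taken as the ratio of nuclei in treated wells to nuclei in vehicle wells. Lung cancer cell lines in 1536-well plates received compounds by pin tool one day after seeding, either one drug alone or a fixed anchor-drug dose plus five library-drug doses (not always all listed) in √10 steps. Nuclei were counted on 4× images after 5 days of treatment, and values are medians of duplicate plates.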

[2] = compound: C(C(=O)C(=O)O)Br [Bromopyruvate] + N=C(N)NC(=N)NCCc1ccccc1 [Phenformin] (partner 250 µM)
Method in brief: as §1

[3] = compound: C(C(=O)C(=O)O)Br [Bromopyruvate] + CC(=O)Nc1cccc(-n2c(=O)n(C3CC3)c(=O)c3c(Nc4ccc(I)cc4F)n(C)c(=O)c(C)c32)c1 [Trametinib] (partner 0.02 µM)
Method in brief: as §1

[4] = compound: CC(O)(CS(=O)(=O)c1ccc(F)cc1)C(=O)Nc1ccc(C#N)c(C(F)(F)F)c1 [Bicalutamide] + O=C(CCCCCCC(=O)Nc1ccccc1)NO [Vorinostat] (partner 1 µM)
Method in brief: as §1

| Cell Line | relative viability ([1]; first compound 1 µM) | relative viability ([1]; first compound 3.162 µM) | relative viability ([1]; first compound 10 µM) | relative viability ([1]; first compound 31.62 µM) | relative viability ([1]; first compound 100 µM) | relative viability ([2]; first compound 1 µM) | relative viability ([2]; first compound 3.162 µM) | relative viability ([2]; first compound 10 µM) | relative viability ([2]; first compound 31.62 µM) | relative viability ([2]; first compound 100 µM) | relative viability ([3]; first compound 1 µM) | relative viability ([3]; first compound 3.162 µM) | relative viability ([3]; first compound 10 µM) | relative viability ([3]; first compound 31.62 µM) | relative viability ([3]; first compound 100 µM) | relative viability ([4]; first compound 0.08 µM) | relative viability ([4]; first compound 0.8 µM) | relative viability ([4]; first compound 2.53 µM) | relative viability ([4]; first compound 0.253 µM) |
| --- | --- | --- | --- | --- | --- | --- | --- | --- | --- | --- | --- | --- | --- | --- | --- | --- | --- | --- | --- |
| NCI-H1793 | 0.659 | 0.715 | 0.751 | 0.697 | 0.702 | 0.382 | 0.452 | 0.455 | 0.413 | 0.401 | 0.469 | 0.496 | 0.503 | 0.485 | 0.49 | 0.869 | 0.996 | 0.566 | – |
| NCI-H1915 | 1.03 | 1.05 | 1.04 | 1.12 | 1.08 | 0.363 | 0.371 | 0.378 | 0.379 | 0.383 | 0.308 | 0.293 | 0.296 | 0.342 | 0.349 | 0.536 | 0.584 | 0.522 | 0.456 |
| NCI-H1944 | 0.8 | 0.85 | 0.904 | 0.821 | 0.858 | 0.218 | 0.225 | 0.217 | 0.206 | 0.214 | 0.428 | 0.376 | 0.409 | 0.435 | 0.398 | 0.54 | 0.593 | 0.438 | 0.516 |
| NCI-H1975 | 0.77 | 0.752 | 0.606 | 0.635 | 0.593 | 0.431 | 0.443 | 0.439 | 0.407 | 0.367 | 0.361 | 0.334 | 0.329 | 0.345 | 0.365 | 0.73 | 0.703 | 0.557 | 0.742 |
| NCI-H1993 | 0.691 | 0.705 | 0.668 | 0.642 | 0.644 | 0.492 | 0.488 | 0.547 | 0.495 | 0.501 | 0.52 | 0.561 | 0.493 | 0.533 | 0.535 | 0.864 | 0.787 | 0.705 | 0.675 |
| NCI-H2009 | 1.11 | 1.15 | 1.21 | 1.07 | 1.01 | 0.476 | 0.493 | 0.507 | 0.475 | 0.344 | 0.277 | 0.328 | 0.246 | 0.26 | 0.245 | 0.732 | 0.898 | 0.71 | 0.719 |
| NCI-H2023 | 0.613 | 0.728 | 0.593 | 0.646 | 0.542 | 0.39 | 0.415 | 0.478 | 0.419 | 0.429 | 0.55 | 0.483 | 0.517 | 0.562 | 0.482 | 0.69 | 0.893 | 0.349 | 0.608 |
| NCI-H2085 | 0.968 | 0.785 | 0.894 | 0.975 | 0.851 | 0.693 | 0.757 | 0.84 | 0.749 | 0.698 | 0.559 | 0.685 | 0.516 | 0.563 | 0.341 | 0.829 | 0.816 | 0.687 | 0.741 |
| NCI-H2087 | 1.03 | 1.14 | 1.02 | 1.25 | 0.829 | 0.493 | 0.445 | 0.578 | 0.414 | 0.392 | 0.224 | 0.189 | 0.156 | 0.175 | 0.185 | 0.668 | 0.812 | 0.856 | 0.643 |
| NCI-H2126 | 0.796 | 0.755 | 0.768 | 0.751 | 0.744 | 0.556 | 0.534 | 0.518 | 0.54 | 0.513 | 0.547 | 0.579 | 0.559 | 0.591 | 0.57 | 0.716 | 0.931 | 0.75 | 0.712 |
| NCI-H2170 | 0.833 | 0.831 | 0.764 | 0.914 | 0.864 | 0.414 | 0.487 | 0.435 | 0.41 | 0.379 | 0.918 | 0.923 | 0.99 | 0.902 | 0.925 | 0.794 | 0.867 | 0.803 | 0.741 |
| NCI-H2228 | 0.656 | 0.866 | 0.806 | 0.698 | 0.631 | 0.341 | 0.418 | 0.178 | 0.285 | 0.334 | 0.472 | 0.505 | 0.548 | 0.514 | 0.538 | 0.584 | 0.993 | 0.581 | 0.795 |
| NCI-H2347 | 1.07 | 1.16 | 1.38 | 0.849 | 1.13 | 0.463 | 0.35 | 0.572 | 0.312 | 0.566 | 0.224 | 0.28 | 0.335 | 0.248 | 0.274 | 0.574 | 0.709 | 0.581 | 0.587 |
| NCI-H2405 | 0.773 | 0.779 | 0.89 | 0.583 | 0.737 | 0.403 | 0.432 | 0.421 | 0.354 | 0.388 | 0.735 | 0.739 | 0.764 | – | 0.684 | 1.09 | 1.49 | 0.975 | 0.985 |
| NCI-H3122 | 0.841 | 0.831 | 0.859 | 0.729 | 0.718 | 0.401 | 0.398 | 0.394 | 0.374 | 0.376 | 0.223 | 0.237 | 0.24 | 0.204 | 0.129 | 1.01 | 1.07 | 0.887 | 0.946 |
| PC-3 [JPC-3] | 1.06 | 1.01 | 1.01 | 1.06 | 1.03 | 0.495 | 0.488 | 0.458 | 0.493 | 0.493 | 0.734 | – | 0.787 | – | 0.734 | 0.809 | 1.14 | 0.808 | 0.887 |
| PC-14 | 1.02 | 1.01 | 0.93 | 0.966 | 0.964 | 0.754 | 0.737 | 0.776 | 0.546 | 0.516 | 0.8 | 0.717 | 0.953 | 0.718 | 0.753 | 0.854 | 0.732 | 0.574 | 0.605 |
